{
  "source": "paper PMC11969009",
  "about": "(Nature Communications, 2025)",
  "key": {"CYP2B6": {"target": "CYP2B6 (Homo sapiens, UniProt P20813)", "sequence (P20813 whole entry)": "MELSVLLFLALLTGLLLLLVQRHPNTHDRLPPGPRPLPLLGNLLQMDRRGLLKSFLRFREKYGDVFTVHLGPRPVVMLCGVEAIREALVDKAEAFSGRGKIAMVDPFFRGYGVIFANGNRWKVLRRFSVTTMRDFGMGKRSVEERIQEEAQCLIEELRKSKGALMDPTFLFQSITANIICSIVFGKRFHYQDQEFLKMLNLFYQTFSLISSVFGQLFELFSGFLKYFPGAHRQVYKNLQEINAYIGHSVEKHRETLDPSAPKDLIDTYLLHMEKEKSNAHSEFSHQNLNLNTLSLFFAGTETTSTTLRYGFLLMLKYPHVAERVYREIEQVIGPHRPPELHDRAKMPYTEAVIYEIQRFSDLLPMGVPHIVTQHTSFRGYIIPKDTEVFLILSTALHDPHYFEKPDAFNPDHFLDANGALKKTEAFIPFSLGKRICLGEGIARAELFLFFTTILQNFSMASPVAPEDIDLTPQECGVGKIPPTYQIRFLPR", "assay": "biochemical"}, "CYP3A4/5 [1]": {"test_system": "CYP3A4/5", "details": "human, microsomes, pH 7.4"}, "CYP3A4/5 [2]": {"test_system": "CYP3A4/5", "details": "human, microsomes"}, "CYP3A4/5 [3]": {"test_system": "CYP3A4/5", "assay": "in vitro", "details": "human, microsomes, pH 7.4, CYP3A4/5 IC50"}, "CYP3A4/5 [4]": {"test_system": "CYP3A4/5", "assay": "in vitro", "details": "human, microsomes"}, "[5]": {"test_system": "SARS-CoV-2 clinical isolate VIC001", "assay": "microbe, parasite or virus in culture", "format": "cell-based", "details": "for EC50: Severe acute respiratory syndrome coronavirus 2, Vero"}, "SARS-CoV-2 P2 strain": {"test_system": "SARS-CoV-2 P2 strain", "parameters": "species or system C57BL/6 (WT) mice", "details": "mouse, in vivo"}, "SARS-CoV-2 PLpro [6]": {"target": "T1, SARS-CoV-2 PLpro (Severe acute respiratory syndrome coronavirus 2, UniProt P0DTD1)", "assay": "biochemical", "parameters": "inhibition of SARS-CoV-2 PLpro, UbRh dose-response replicate value: unit: %", "details": "for IC50: IC50 (UbRh) SARS-CoV-2 PLpro"}, "SARS-CoV-2 PLpro [7]": {"target": "T1, SARS-CoV-2 PLpro", "assay": "cell-based", "format": "cell-based"}, "SARS-CoV-2 PLpro [8]": {"target": "T1, SARS-CoV-2 PLpro"}, "CYP2C8": {"target": "CYP2C8 (Homo sapiens, UniProt P10632)", "sequence (P10632 whole entry)": "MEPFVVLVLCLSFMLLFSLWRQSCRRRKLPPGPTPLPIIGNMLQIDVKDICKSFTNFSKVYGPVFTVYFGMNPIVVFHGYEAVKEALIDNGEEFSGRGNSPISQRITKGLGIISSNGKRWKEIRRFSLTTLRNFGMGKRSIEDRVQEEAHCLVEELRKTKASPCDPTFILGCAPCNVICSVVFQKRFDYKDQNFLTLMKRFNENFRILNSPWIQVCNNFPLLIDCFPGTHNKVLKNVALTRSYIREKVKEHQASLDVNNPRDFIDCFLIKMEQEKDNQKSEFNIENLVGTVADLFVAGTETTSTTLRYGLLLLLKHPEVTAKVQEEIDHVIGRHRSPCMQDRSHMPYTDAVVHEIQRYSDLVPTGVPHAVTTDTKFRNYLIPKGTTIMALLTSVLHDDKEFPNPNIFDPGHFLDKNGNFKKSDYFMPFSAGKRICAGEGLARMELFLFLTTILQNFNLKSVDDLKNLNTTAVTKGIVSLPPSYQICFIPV", "details": "microsomes"}, "[9]": {"details": "read-out: Antiviral EC50 (plaque assay)"}},
  "note": "Values joined by “and” are separate entries in the source; they are usually repeats but may differ in a detail not shown here. Equal entries are not always repeated. Where two headings read alike, the source gives them in different places.",
  "data": [
    {"compound": "CC(C)(c1ccccc1)N1CCCCC1", "note": "[2-phenyl-2-(1-piperidinyl) propane, reference compound]", "values": [
      {"measurement": "IC50", "setting": "CYP2B6", "result": 8.9, "unit": "µM"}
    ]},
    {"compound": "CC(=O)N1CCN(c2ccc(OCC3COC(Cn4ccnc4)(c4ccc(Cl)cc4Cl)O3)cc2)CC1", "note": "(stereo not shown) [Ketoconazole, reference compound]", "values": [
      {"measurement": "IC50", "setting": "CYP3A4/5 [1]", "result": 0.011, "unit": "µM"},
      {"measurement": "Fold Shift IC50 (-NADPH) / IC50 (+NADPH)", "setting": "CYP3A4/5 [2]", "result": 0.68},
      {"measurement": "IC50", "setting": "CYP3A4/5 [2]", "result": 0.0084, "unit": "µM"},
      {"measurement": "IC50", "setting": "CYP3A4/5 [3]", "result": 0.01, "unit": "µM"},
      {"measurement": "IC50 shift", "setting": "CYP3A4/5 [4]; Fold Shift IC50 (-NADPH) / IC50 (+NADPH)", "result": 0.8},
      {"measurement": "IC50", "setting": "CYP3A4/5 [4]; Time dependent CYP3A4/5 IC50 + NADPH", "result": 0.016, "unit": "µM"},
      {"measurement": "IC50", "setting": "CYP3A4/5 [4]; Time dependent CYP3A4/5 IC50 - NADPH", "result": 0.013, "unit": "µM"}
    ]},
    {"compound": "CC(C)(C)[C@H](NC(=O)C(F)(F)F)C(=O)N1C[C@H]2[C@@H]([C@H]1C(=O)N[C@H](C#N)C[C@@H]1CCNC1=O)C2(C)C", "note": "[Nirmatrelvir, nirmatrelvir, reference compound]", "values": [
      {"measurement": "EC50", "setting": "[5]; [9]", "result": "> 2", "unit": "µM"},
      {"measurement": "EC50", "setting": "[5]; read-out: Antiviral EC50 (plaque assay) with Pgp inhibitor", "result": 0.53, "unit": "µM"},
      {"measurement": "Ext Data Fig 2f dose response (0 µM = 100)", "setting": "[5]; concentration 0.01 µM", "result": "108.0460 and 101.2658 and 103.7975 and 95.0617 and 93.8272 and 95.6522"},
      {"measurement": "Ext Data Fig 2f dose response (0 µM = 100)", "setting": "[5]; concentration 0.02 µM", "result": "90.8046 and 108.8608 and 111.3924 and 104.9383 and 98.7654 and 104.3478"},
      {"measurement": "Ext Data Fig 2f dose response (0 µM = 100)", "setting": "[5]; concentration 0.04 µM", "result": "97.7011 and 96.2025 and 105.0633 and 97.5309 and 90.1235 and 85.5072"},
      {"measurement": "Ext Data Fig 2f dose response (0 µM = 100)", "setting": "[5]; concentration 0.08 µM", "result": "93.1034 and 89.8734 and 106.3291 and 109.8765 and 100.0000 and 102.8986"},
      {"measurement": "Ext Data Fig 2f dose response (0 µM = 100)", "setting": "[5]; concentration 0.3 µM", "result": "104.5977 and 108.8608 and 102.5316 and 58.0247 and 83.9506 and 71.0145"},
      {"measurement": "antiviral activity (lung viral burden), mild model", "setting": "SARS-CoV-2 P2 strain", "result": "no antiviral activity"}
    ]},
    {"compound": "CO/N=C(/c1ccc2cc(OC)ccc2c1)C1CCCN(C2CCCC2)C1", "note": "(stereo not shown) [WEHI-P2]", "values": [
      {"measurement": "IC50 (UbRh) SARS-CoV-2 PLpro", "setting": "SARS-CoV-2 PLpro [6]", "result": "submicromolar"},
      {"measurement": "inhibition of SARS-CoV-2 PLpro, UbRh dose-response replicate value", "setting": "SARS-CoV-2 PLpro [6]; Conc 0.00498 µM", "result": "-15.8303 and -11.7404 and -10.1452 and -13.4396 and 0.4248 and 3.42 and -8.071 and -0.3979"},
      {"measurement": "inhibition of SARS-CoV-2 PLpro, UbRh dose-response replicate value", "setting": "SARS-CoV-2 PLpro [6]; Conc 0.0149 µM", "result": "-13.9221 and -7.6283 and -8.496 and -15.6937 and -2.169 and 1.092 and -11.0387 and -1.093"},
      {"measurement": "inhibition of SARS-CoV-2 PLpro, UbRh dose-response replicate value", "setting": "SARS-CoV-2 PLpro [6]; Conc 0.0448 µM", "result": "-10.8825 and -7.692 and -10.0063 and -17.0131 and 5.235 and 6.569 and -0.8163 and 5.0409"},
      {"measurement": "inhibition of SARS-CoV-2 PLpro, UbRh dose-response replicate value", "setting": "SARS-CoV-2 PLpro [6]; Conc 3.63 µM", "result": "108.558 and 106.946 and 112.788 and 102.006 and 101.573 and 101.518 and 102.655"},
      {"measurement": "inhibition at 3.63 µM", "setting": "SARS-CoV-2 PLpro [6]; Conc 3.63 µM, read-out: inhibition of SARS-CoV-2 PLpro, UbRh dose-response replicate value", "result": 110, "unit": "%"},
      {"measurement": "inhibition of SARS-CoV-2 PLpro, UbRh dose-response replicate value", "setting": "SARS-CoV-2 PLpro [6]; Conc 98 µM", "result": "126.525 and 125.26 and 122.237 and 129.703 and 110.886 and 110.306 and 111.038 and 109.523"},
      {"measurement": "inhibition of SARS-CoV-2 PLpro, UbRh dose-response replicate value", "setting": "SARS-CoV-2 PLpro [6]; Conc […]", "result": 108.844},
      {"measurement": "IC50", "setting": "SARS-CoV-2 PLpro [6]", "result": 0.397, "unit": "µM"},
      {"measurement": "IC50", "setting": "SARS-CoV-2 PLpro [6]; Supplementary Fig. 2b", "result": 0.645, "unit": "µM"},
      {"measurement": "inhibition at […]", "setting": "SARS-CoV-2 PLpro [6]; read-out: inhibition of SARS-CoV-2 PLpro, UbRh dose-response replicate value", "result": "127% and 123% and 74.5%"},
      {"measurement": "EC50", "setting": "SARS-CoV-2 PLpro [7]", "result": 11, "unit": "µM"},
      {"measurement": "FRET EC50 (cellular)", "setting": "SARS-CoV-2 PLpro [7]", "result": "micromolar cellular activity"},
      {"measurement": "EC50", "setting": "[5]; [9]", "result": "> 2", "unit": "µM"},
      {"measurement": "Molar Mass (kDa)", "setting": "SARS-CoV-2 PLpro [8]", "result": "34.0141 kDa and 34.3179 kDa and 34.334 kDa"},
      {"measurement": "observed molar mass of PLpro (SEC-MALS)", "setting": "SARS-CoV-2 PLpro [8]", "result": 34.2, "unit": "kDa"}
    ]},
    {"compound": "CC(C)c1nc(CN(C)C(=O)N[C@H](C(=O)N[C@@H](Cc2ccccc2)C[C@H](O)[C@H](Cc2ccccc2)NC(=O)OCc2cncs2)C(C)C)cs1", "note": "[ritonavir, reference compound]", "values": [
      {"measurement": "antiviral activity (lung viral burden), mild model", "setting": "SARS-CoV-2 P2 strain", "result": "no antiviral activity"}
    ]},
    {"compound": "quercitin [reference compound]", "values": [
      {"measurement": "IC50", "setting": "CYP2C8", "result": 2.3, "unit": "µM"}
    ]}
  ]
}
